According to PMC8632988, “Inhibition of SYK and cSrc kinases can protect bone and cartilage in preclinical models of osteoarthritis and rheumatoid arthritis” (Scientific Reports, 2021):
Where two headings read alike, the source gives them in different places.

Columns and labels:
Experiment in all cases: Kinase selectivity profile assay
Format in all cases: biochemical
[1] = target: T1, Aurora B (Homo sapiens, UniProt Q96GD4); conditions: 500 nM; relative to DMSO; read-out: Residual enzymatic activity
T1 construct: purchased Reaction Biology Corporation
Method in brief: (§1)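 Radiometric kinase assay run by a standard protocol. Unbound phosphate was removed by washing filters in phosphoric acid, and product radioactivity gave percent remaining kinase activity versus DMSO vehicle reactions. Run in duplicate.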

[2] = target: T2, PKCzeta (Homo sapiens, UniProt Q05513); conditions: read-out: Residual enzymatic activity
T2 construct: purchased Reaction Biology Corporation
Method in brief: as §1

[3] = target: T3, ALK2/ACVR1 (Homo sapiens, UniProt Q04771); conditions: 500 nM; relative to DMSO; read-out: Residual enzymatic activity
T3 construct: purchased Reaction Biology Corporation
Method in brief: as §1

[4] = target: T4, CLK3 (Homo sapiens, UniProt P49761); conditions: 500 nM; relative to DMSO; read-out: Residual enzymatic activity
T4 construct: purchased Reaction Biology Corporation
Method in brief: as §1

[5] = target: T5, PKAcg (Homo sapiens, UniProt P22612); conditions: 500 nM; relative to DMSO; read-out: Residual enzymatic activity
T5 construct: purchased Reaction Biology Corporation
Method in brief: as §1

[6] = target: T6, RSK4 (Homo sapiens, UniProt Q9UK32); conditions: 500 nM; relative to DMSO; read-out: Residual enzymatic activity
T6 construct: purchased Reaction Biology Corporation
Method in brief: as §1

[7] = target: T7, DYRK1/DYRK1A (Homo sapiens, UniProt Q13627); conditions: 500 nM; relative to DMSO; read-out: Residual enzymatic activity
T7 construct: purchased Reaction Biology Corporation
Method in brief: as §1

[8] = target: T8, DYRK1B (Homo sapiens, UniProt Q9Y463); conditions: 500 nM; relative to DMSO; read-out: Residual enzymatic activity
T8 construct: purchased Reaction Biology Corporation
Method in brief: as §1

[9] = target: T9, CDC7/DBF4 (Homo sapiens, UniProt O00311); conditions: 500 nM; relative to DMSO; read-out: Residual enzymatic activity
T9 construct: purchased Reaction Biology Corporation
Method in brief: as §1

[10] = target: T10, IR (Homo sapiens, UniProt P06213); conditions: 500 nM; relative to DMSO; read-out: Residual enzymatic activity
T10 construct: purchased Reaction Biology Corporation
T10 sequence (P06213 28-1382): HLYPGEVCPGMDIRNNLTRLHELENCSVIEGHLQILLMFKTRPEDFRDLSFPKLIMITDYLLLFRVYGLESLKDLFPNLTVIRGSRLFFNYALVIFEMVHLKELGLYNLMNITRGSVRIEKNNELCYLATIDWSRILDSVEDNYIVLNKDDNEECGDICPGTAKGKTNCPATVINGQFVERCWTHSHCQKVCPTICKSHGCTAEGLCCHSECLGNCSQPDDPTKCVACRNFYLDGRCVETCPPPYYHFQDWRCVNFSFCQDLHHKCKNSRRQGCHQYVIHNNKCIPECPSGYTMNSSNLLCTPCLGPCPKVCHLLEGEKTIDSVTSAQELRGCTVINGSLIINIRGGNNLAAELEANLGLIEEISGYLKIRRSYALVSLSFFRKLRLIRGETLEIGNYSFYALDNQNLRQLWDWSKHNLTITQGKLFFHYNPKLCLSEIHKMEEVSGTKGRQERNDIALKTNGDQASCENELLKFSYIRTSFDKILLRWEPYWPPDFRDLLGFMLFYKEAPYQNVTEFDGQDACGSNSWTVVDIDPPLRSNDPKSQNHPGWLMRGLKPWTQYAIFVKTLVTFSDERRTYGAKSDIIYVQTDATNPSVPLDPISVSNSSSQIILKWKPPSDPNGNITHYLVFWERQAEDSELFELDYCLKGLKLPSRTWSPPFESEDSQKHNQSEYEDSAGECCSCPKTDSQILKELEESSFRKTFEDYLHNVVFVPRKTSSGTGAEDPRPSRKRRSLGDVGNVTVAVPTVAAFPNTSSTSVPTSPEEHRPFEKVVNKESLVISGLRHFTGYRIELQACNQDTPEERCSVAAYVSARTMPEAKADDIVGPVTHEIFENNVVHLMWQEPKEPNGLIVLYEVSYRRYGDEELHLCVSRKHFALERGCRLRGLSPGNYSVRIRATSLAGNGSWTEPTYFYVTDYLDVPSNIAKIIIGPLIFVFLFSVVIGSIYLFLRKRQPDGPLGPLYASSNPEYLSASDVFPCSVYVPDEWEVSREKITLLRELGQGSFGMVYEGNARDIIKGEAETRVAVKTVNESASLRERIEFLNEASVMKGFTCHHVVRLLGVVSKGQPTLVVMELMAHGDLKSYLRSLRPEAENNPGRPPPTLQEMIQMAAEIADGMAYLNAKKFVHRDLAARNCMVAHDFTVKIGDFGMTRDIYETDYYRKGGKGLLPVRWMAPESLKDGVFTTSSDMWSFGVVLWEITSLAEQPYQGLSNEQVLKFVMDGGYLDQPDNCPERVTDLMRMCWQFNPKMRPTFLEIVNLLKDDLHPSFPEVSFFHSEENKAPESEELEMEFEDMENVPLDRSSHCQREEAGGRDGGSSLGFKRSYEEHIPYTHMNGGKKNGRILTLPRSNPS
Method in brief: as §1

[11] = target: T11, FLT3 (Homo sapiens, UniProt P36888); conditions: for remaining activity at 0.5 µM: 500 nM, relative to DMSO, read-out: Residual enzymatic activity
T11 construct: purchased Reaction Biology Corporation (assay service)
T11 sequence (P36888 27-993): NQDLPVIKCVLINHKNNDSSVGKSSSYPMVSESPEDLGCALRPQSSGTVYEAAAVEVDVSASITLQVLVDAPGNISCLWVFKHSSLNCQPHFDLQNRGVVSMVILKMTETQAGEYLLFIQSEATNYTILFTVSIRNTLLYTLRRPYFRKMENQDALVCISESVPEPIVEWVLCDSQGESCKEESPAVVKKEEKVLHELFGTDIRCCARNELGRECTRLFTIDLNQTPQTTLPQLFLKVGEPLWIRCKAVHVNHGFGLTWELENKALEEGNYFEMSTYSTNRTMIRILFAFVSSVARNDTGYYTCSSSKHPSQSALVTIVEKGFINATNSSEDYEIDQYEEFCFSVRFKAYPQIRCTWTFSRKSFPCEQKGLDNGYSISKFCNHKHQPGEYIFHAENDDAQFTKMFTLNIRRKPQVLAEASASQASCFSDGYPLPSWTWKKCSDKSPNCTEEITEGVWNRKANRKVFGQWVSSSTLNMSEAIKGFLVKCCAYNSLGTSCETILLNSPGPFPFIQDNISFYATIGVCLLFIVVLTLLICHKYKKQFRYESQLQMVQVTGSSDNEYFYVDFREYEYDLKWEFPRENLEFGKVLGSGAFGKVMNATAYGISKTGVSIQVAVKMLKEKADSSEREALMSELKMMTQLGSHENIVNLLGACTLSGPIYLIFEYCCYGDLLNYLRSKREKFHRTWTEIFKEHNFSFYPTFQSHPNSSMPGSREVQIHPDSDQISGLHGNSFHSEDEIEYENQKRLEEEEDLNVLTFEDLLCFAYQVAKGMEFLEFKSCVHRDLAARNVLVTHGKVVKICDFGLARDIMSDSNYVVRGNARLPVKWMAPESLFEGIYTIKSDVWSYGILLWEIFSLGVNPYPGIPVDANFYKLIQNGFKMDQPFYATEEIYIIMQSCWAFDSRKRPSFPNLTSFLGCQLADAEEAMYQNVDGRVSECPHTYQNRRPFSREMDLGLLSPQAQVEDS
Method in brief: as §1

[12] = target: T12, MAPKAPK3 (Homo sapiens, UniProt Q16644); conditions: 500 nM; relative to DMSO; read-out: Residual enzymatic activity
T12 construct: purchased Reaction Biology Corporation
Method in brief: as §1

[13] = target: T13, MSK2/RPS6KA4 (Homo sapiens, UniProt O75676); conditions: 500 nM; relative to DMSO; read-out: Residual enzymatic activity
T13 construct: purchased Reaction Biology Corporation
Method in brief: as §1

[14] = target: T14, RSK2 (Homo sapiens, UniProt P51812); conditions: 500 nM; relative to DMSO; read-out: Residual enzymatic activity
T14 construct: purchased Reaction Biology Corporation
Method in brief: as §1

[15] = target: T15, IGF1R (Homo sapiens, UniProt P08069); conditions: 500 nM; relative to DMSO; read-out: Residual enzymatic activity
T15 construct: purchased Reaction Biology Corporation
Method in brief: as §1

[16] = target: T16, CDK1/cyclin A (Homo sapiens, UniProt P06493); conditions: 500 nM; relative to DMSO; read-out: Residual enzymatic activity
T16 construct: purchased Reaction Biology Corporation
Method in brief: as §1

[17] = target: T17, ERBB2/HER2 (Homo sapiens, UniProt P04626); conditions: 500 nM; relative to DMSO; read-out: Residual enzymatic activity
T17 construct: purchased Reaction Biology Corporation
T17 sequence (P04626 23-1255): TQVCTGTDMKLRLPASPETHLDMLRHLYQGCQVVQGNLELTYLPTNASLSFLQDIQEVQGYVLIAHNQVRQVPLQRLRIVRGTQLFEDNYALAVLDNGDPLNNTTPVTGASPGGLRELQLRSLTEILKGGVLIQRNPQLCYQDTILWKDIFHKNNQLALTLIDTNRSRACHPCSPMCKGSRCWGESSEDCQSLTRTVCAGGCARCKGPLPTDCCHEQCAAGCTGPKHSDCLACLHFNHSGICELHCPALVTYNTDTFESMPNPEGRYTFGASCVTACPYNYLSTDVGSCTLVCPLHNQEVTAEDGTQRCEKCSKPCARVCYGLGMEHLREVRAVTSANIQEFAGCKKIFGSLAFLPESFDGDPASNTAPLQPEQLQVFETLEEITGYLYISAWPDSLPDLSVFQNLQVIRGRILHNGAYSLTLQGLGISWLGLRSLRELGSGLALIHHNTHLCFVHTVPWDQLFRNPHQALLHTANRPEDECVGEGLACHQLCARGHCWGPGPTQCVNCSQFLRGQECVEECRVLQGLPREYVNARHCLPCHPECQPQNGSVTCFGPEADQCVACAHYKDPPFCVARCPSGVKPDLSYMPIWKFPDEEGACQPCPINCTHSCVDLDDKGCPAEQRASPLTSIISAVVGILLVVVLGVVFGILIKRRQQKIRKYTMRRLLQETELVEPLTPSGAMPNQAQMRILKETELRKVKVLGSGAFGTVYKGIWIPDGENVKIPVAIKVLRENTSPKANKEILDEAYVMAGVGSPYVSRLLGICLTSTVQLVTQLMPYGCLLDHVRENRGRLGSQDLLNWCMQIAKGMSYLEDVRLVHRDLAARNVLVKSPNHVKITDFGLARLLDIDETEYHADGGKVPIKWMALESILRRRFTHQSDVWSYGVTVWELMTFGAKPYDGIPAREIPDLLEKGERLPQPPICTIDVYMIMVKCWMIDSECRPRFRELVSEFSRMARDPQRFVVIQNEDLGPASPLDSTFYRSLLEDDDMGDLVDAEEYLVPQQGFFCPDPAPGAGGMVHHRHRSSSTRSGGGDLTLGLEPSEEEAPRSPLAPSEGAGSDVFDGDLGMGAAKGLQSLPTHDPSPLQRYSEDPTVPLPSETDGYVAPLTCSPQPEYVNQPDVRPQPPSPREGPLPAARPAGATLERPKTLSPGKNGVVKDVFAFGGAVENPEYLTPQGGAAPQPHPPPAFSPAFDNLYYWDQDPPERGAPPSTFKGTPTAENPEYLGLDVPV
Method in brief: as §1

[18] = target: T18, DAPK1 (Homo sapiens, UniProt P53355); conditions: 500 nM; relative to DMSO; read-out: Residual enzymatic activity
T18 construct: purchased Reaction Biology Corporation
Method in brief: as §1

[19] = target: T19, WNK2 (Homo sapiens, UniProt Q9Y3S1); conditions: 500 nM; relative to DMSO; read-out: Residual enzymatic activity
T19 construct: purchased Reaction Biology Corporation
Method in brief: as §1

[20] = target: T20, RAF1 (Homo sapiens, UniProt P04049); conditions: 500 nM; relative to DMSO; read-out: Residual enzymatic activity
T20 construct: purchased Reaction Biology Corporation
Method in brief: as §1

[21] = target: T21, CDK9/cyclin T1 (Homo sapiens, UniProt P50750); conditions: 500 nM; relative to DMSO; read-out: Residual enzymatic activity
T21 construct: purchased Reaction Biology Corporation
Method in brief: as §1

[22] = target: T22, P38b/MAPK11 (Homo sapiens, UniProt Q15759); conditions: 500 nM; relative to DMSO; read-out: Residual enzymatic activity
T22 construct: purchased Reaction Biology Corporation
Method in brief: as §1

[23] = target: T23, LATS1 (Homo sapiens, UniProt O95835); conditions: 500 nM; relative to DMSO; read-out: Residual enzymatic activity
T23 construct: purchased Reaction Biology Corporation
Method in brief: as §1

[24] = target: T24, MEKK1 (Homo sapiens, UniProt Q13233); conditions: 500 nM; relative to DMSO; read-out: Residual enzymatic activity
T24 construct: purchased Reaction Biology Corporation
Method in brief: as §1

[25] = target: T25, AXL (Homo sapiens, UniProt P30530); conditions: 500 nM; relative to DMSO; read-out: Residual enzymatic activity
T25 construct: purchased Reaction Biology Corporation
Method in brief: as §1

[26] = target: T26, AKT2 (Homo sapiens, UniProt P31751); conditions: 500 nM; relative to DMSO; read-out: Residual enzymatic activity
T26 construct: purchased Reaction Biology Corporation
Method in brief: as §1

[27] = target: T27, VRK2 (Homo sapiens, UniProt Q86Y07); conditions: read-out: Residual enzymatic activity
T27 construct: purchased Reaction Biology Corporation
Method in brief: as §1

[28] = target: T28, LRRK2 (Homo sapiens, UniProt Q5S007); conditions: for remaining activity at 0.5 µM: 500 nM, relative to DMSO, read-out: Residual enzymatic activity
T28 construct: purchased Reaction Biology Corporation (assay service)
T28 sequence (Q5S007 whole entry): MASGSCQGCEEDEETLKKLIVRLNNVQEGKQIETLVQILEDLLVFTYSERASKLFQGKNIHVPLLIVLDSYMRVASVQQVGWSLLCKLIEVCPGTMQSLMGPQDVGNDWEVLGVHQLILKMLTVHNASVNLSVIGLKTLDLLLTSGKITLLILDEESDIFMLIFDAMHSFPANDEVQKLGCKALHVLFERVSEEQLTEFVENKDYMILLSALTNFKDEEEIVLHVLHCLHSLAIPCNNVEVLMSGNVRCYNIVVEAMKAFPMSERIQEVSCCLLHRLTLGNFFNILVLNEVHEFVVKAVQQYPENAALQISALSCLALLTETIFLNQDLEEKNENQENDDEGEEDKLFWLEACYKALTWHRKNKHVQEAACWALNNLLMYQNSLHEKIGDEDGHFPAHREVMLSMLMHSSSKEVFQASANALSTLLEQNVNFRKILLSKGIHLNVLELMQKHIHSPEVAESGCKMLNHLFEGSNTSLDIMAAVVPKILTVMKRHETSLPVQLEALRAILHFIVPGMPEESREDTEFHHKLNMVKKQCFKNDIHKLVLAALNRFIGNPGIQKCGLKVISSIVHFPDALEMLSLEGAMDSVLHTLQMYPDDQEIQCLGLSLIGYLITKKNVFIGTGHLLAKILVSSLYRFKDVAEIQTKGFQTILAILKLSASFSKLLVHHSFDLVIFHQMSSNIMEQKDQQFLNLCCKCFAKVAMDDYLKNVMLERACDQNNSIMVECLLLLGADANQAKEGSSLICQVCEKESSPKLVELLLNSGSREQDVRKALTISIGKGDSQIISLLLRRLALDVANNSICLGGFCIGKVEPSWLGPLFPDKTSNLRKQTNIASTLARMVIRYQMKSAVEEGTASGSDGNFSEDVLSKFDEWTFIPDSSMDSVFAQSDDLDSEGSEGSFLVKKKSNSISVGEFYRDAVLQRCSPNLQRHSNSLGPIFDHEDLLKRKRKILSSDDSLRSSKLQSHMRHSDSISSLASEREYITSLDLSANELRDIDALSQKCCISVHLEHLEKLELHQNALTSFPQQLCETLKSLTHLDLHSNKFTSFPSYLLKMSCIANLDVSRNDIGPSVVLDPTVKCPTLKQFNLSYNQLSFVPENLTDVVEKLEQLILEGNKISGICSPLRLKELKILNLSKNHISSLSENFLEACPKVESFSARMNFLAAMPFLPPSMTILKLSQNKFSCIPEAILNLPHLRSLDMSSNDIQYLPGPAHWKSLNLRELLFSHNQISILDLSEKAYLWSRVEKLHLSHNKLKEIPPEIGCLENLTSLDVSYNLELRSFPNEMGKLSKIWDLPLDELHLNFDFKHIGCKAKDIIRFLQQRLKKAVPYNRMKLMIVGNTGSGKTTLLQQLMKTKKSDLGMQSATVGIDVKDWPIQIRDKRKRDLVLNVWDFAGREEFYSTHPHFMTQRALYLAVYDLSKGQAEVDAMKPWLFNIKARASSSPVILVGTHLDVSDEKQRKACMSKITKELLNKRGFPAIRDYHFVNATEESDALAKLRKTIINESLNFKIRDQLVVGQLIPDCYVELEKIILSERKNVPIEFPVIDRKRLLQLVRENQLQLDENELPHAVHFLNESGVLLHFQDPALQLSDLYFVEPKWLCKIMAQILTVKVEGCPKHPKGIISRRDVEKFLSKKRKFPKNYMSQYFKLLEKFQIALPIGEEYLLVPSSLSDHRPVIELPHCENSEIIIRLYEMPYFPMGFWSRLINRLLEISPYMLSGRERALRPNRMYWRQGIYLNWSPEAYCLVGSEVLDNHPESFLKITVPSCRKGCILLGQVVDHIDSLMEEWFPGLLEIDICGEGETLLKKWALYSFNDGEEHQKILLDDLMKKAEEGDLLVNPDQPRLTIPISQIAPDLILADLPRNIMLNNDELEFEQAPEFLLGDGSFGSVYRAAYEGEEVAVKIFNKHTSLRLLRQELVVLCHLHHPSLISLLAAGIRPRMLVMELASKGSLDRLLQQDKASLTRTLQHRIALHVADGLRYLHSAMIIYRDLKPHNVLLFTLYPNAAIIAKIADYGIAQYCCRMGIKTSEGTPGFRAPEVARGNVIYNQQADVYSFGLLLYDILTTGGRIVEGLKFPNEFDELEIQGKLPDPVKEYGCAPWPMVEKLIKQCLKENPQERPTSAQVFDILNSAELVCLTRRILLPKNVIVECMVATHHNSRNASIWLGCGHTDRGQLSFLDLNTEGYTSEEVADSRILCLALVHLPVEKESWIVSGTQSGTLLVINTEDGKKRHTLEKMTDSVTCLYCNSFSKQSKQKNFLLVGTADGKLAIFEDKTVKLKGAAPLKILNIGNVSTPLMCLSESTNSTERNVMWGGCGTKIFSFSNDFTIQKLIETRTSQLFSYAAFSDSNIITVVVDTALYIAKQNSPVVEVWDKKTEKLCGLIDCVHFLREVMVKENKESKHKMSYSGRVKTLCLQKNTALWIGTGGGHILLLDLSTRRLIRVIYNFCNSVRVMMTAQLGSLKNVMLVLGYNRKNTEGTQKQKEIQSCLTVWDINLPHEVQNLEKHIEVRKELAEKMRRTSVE
Method in brief: as §1

[29] = 10-dose mode, threefold serial dilution from 10 μM

Row | SMILES | remaining activity at 0.5 µM [1] | remaining activity at 0.5 µM [3] | remaining activity at 0.5 µM [4] | remaining activity at 0.5 µM [5] | remaining activity at 0.5 µM [6] | remaining activity at 0.5 µM [7] | remaining activity at 0.5 µM [8] | remaining activity at 0.5 µM [9] | remaining activity at 0.5 µM [10] | remaining activity at 0.5 µM [11] | remaining activity at 0.5 µM [12] | remaining activity at 0.5 µM [13] | remaining activity at 0.5 µM [14] | remaining activity at 0.5 µM [15] | remaining activity at 0.5 µM [16] | remaining activity at 0.5 µM [17] | remaining activity at 0.5 µM [18] | remaining activity at 0.5 µM [19] | remaining activity at 0.5 µM [20] | remaining activity at 0.5 µM [21] | also measured
1 | COc1cc(Nc2ncnc(Nc3cc4c(cn3)NC(=O)C(C)(C)O4)n2)cc(OC)c1OC [MT-SYK-03] | 78.6% | 241% | 103% | 106% | 99.7% | 90.5% | 90.6% | 102% | 94.4% | 5.7% | 102% | 97.9% | 104% | 90% | 110% | 82.2% | 113% | 84.6% | 91.5% | 118% | remaining activity at 0.5 µM ([2]; 500 nM, relative to DMSO): 109%; IC50 [11, 29]: 23 nM; remaining activity at 0.5 µM [22]: 103%; remaining activity at 0.5 µM [23]: 99.4%; remaining activity at 0.5 µM [24]: 105%; remaining activity at 0.5 µM [25]: 74.3%; remaining activity at 0.5 µM [26]: 106%; remaining activity at 0.5 µM ([27]; 500 nM, relative to DMSO): 129%; remaining activity at 0.5 µM [28]: 48%; IC50 [28, 29]: 206 nM
2 | COc1cc(Nc2ncc(F)c(Nc3ccc4c(n3)NC(=O)C(C)(C)O4)n2)cc(OC)c1OC [R406, reference compound] | 40.2% | 135% | 89.4% | 91.7% | 45.6% | 53% | 72.5% | 82.6% | 77.5% | 6.2% | 102% | 97.7% | 56.9% | 60.3% | 74.2% | 80.5% | 65.2% | 95.2% | 73.3% | 99.5% | remaining activity at 0.5 µM [2]: 105%; remaining activity at 0.5 µM [22]: 101%; remaining activity at 0.5 µM [23]: 79.6%; remaining activity at 0.5 µM [24]: 100%; remaining activity at 0.5 µM [25]: 44.5%; remaining activity at 0.5 µM [26]: 110%; remaining activity at 0.5 µM [27]: 131%; remaining activity at 0.5 µM [28]: 5.5%
